Test system: L. major lysate proteins
Assay: Multitargeted bead mixture chemoproteomics, single concentration competition, proteome-wide
Assay type: binding
Conditions: for fold change: vehicle control = 1

With `Nc1nc2c(c(=O)[nH]1)N(C=O)C(CNc1ccc(C(=O)N[C@@H](CCC(=O)O)C(=O)O)cc1)CN2` (stereo partly drawn) [LEU, leucovorin] the “fold change vs vehicle control” value (protein LMJF.15.0690 HY[…], CONSERVED) was 1.14, the fold change (protein LMJF.15.1010 GLUTAMATE DEHYDROGENASE) was 0.98 and the fold change (protein LMJF.15.1190 HYPOTHETICAL PROTEIN, CONSERVED (cyclic nucleotide-binding domain containing protein, putative)) was 0.96. The “fold change vs vehicle control” value (protein LMJF.16.0520 HYPOTHETICAL PROTEIN, CONSERVED) was 1.1, the “fold change vs vehicle control” value (protein LMJF.16.0540 ASPARTATE CARBAMOYLTRANSFERASE, PUTATIVE) was 0.98 and the “fold change relative to vehicle control” value (protein LMJF.16.0760, TRANSALDOLASE, PUTATIVE) was 1.22. For the same compound, the “fold change vs vehicle control” value (protein LMJF.16.0940 DYNEIN LIGHT CHAIN, PUTATIVE) was 1.06, the “fold change relative to vehicle control” value (protein LMJF.16.1180, COATOMER DELTA SUBUNIT-LIKE PROTEIN) was 1.21 and the “fold change relative to vehicle control” value (protein LMJF.16.1320, CYTOCHROME C, PUTATIVE) was 2.28. The “fold change relative to vehicle control” value (protein LMJF.16.1420, HY[…], CONSERVED) was 1.01, the “fold change relative to vehicle control” value (protein LMJF.17.0081, […] 1-ALPHA) was 1.09 and the “fold change relative to vehicle control” value (protein LMJF.18.0270, GLYCOGEN SYNTHASE KINASE, PUTATIVE) was 0.57. For the same compound, the fold change (protein LMJF.18.0580 P[…]-COA HYDRATASE, PUTATIVE) was 1.02, the “fold change relative to vehicle control” value (protein LMJF.18.0680, CITRATE SYNTHASE, PUTATIVE) was 1.15 and the “fold change vs vehicle control” value (protein LMJF.18.1010 DYNEIN LIGHT CHAIN 2B, CYTOPLASMIC, PUTATIVE) was 0.99. The “fold change vs vehicle control” value (protein LMJF.18.1210 PROLYL-TRNA SYNTHETASE, PUTATIVE,BI[…]-TRNA SYNTHETASE, PUTATIVE) was 1.38, the “fold change vs vehicle control” value (protein LMJF.18.1370 HEAT SHOCK PROTEIN, PUTATIVE) was 0.99 and the fold change (protein LMJF.19.0200 ADP,ATP CARRIER PROTEIN 1, MIT[…], PUTATIVE) was 1.01. The “fold change vs vehicle control” value (protein LMJF.19.1120 PROTEASOME REGULATORY NON-ATP-ASE SUBUNIT, PUTATIVE) was 0.93, the “fold change vs vehicle control” value (protein LMJF.19.1160 HYPOTHETICAL PROTEIN, CONSERVED) was 0.87 and the “fold change vs vehicle control” value (protein LMJF.19.1560 INOSINE-5'-MONOPHOSPHATE DEHYDROGENASE) was 1.06. For the same compound, the “fold change relative to vehicle control” value (protein LMJF.19.1620, POTASSIUM VOLTAGE-GATED CHANNEL, PUTATIVE) was 1.08, the “fold change vs vehicle control” value (protein LMJF.20.1280 SMALL MYRISTOYLATED PROTEIN 4, PUTATIVE) was 0.97 and the fold change (protein LMJF.21.0810 METHIONYL-TRNA SYNTHETASE, PUTATIVE) was 1.03. The fold change (protein LMJF.21.1450 ARGININE N-METHYLTRANSFERASE, TYPE II, PUTATIVE) was 1.01, the “fold change vs vehicle control” value (protein LMJF.21.1830 […] 5 SUBUNIT, PUTATIVE,20S […] ALPHA 5, (PUTATIVE)) was 1.06 and the fold change (protein LMJF.22.0230 AMINO ACID PERMEASE, PUTATIVE) was 0.86. For the same compound, the “fold change vs vehicle control” value (protein LMJF.22.0570 PROTEASOME REGULATORY ATPASE SUBUNIT 1, PUTATIVE) was 0.98, the “fold change vs vehicle control” value (protein LMJF.22.0730 HY[…], CONSERVED) was 1.05 and the fold change (protein LMJF.22.0770 NADH-CYTOCHROME B5 REDUCTASE, PUTATIVE) was 1.02. The “fold change relative to vehicle control” value (protein LMJF.23.0020, HY[…], CONSERVED) was 1.09, the “fold change relative to vehicle control” value (protein LMJF.23.0040, PEROXIDOXIN) was 1.41 and the “fold change relative to vehicle control” value (protein LMJF.23.0080, HY[…], CONSERVED) was 1.07. For the same compound, the fold change (protein LMJF.23.0210 ATP-BINDING CASSETTE PROTEIN SUBFAMILY C, MEMBER 1, PUTATIVE) was 0.88, the fold change (protein LMJF.23.0370 CYTOCHROME C OXIDASE SUBUNIT 10, PUTATIVE) was 0.88 and the “fold change relative to vehicle control” value (protein LMJF.23.0540, ACETYL-COA SYNTHETASE, PUTATIVE) was 1.24. The “fold change vs vehicle control” value (protein LMJF.23.0560 KINESIN, PUTATIVE) was 1.03, the “fold change vs vehicle control” value (protein LMJF.23.1410 HY[…], CONSERVED) was 1.01 and the “fold change relative to vehicle control” value (protein LMJF.24.0070, HYPOTHETICAL PROTEIN, CONSERVED) was 0.98. For the same compound, the fold change (protein LMJF.24.0140 ANKYRIN/TPR REPEAT PROTEIN) was 0.96, the fold change (protein LMJF.24.0400 HY[…], CONSERVED (TPR repeat, putative)) was 1.02 and the “fold change relative to vehicle control” value (protein LMJF.24.1510, IGE-DEPENDENT HISTAMINE-RELEASING FACTOR, PUTATIVE) was 1.54. The “fold change relative to vehicle control” value (protein LMJF.24.1630, SUCCINATE DEHYDROGENASE FLAVOPROTEIN, PUTATIVE) was 1.06, the “fold change relative to vehicle control” value (protein LMJF.24.2060, TRANSKETOLASE) was 0.92 and the “fold change relative to vehicle control” value (protein LMJF.25.0010, BETA […] TRANSFERASE) was 1.41. For the same compound, the “fold change relative to vehicle control” value (protein LMJF.25.0910, CYCLOPHILIN A) was 2.65, the “fold change vs vehicle control” value (protein LMJF.25.1130 […] OXIDASE VII, PUTATIVE) was 1.08 and the “fold change relative to vehicle control” value (protein LMJF.25.1180, ATPASE BETA SUBUNIT, PUTATIVE) was 1.04. For the same compound, the “fold change vs vehicle control” value (protein LMJF.25.1610 HY[…], CONSERVED) was 1.03, the “fold change vs vehicle control” value (protein LMJF.25.1620 HYPOTHETICAL PROTEIN, CONSERVED) was 0.97 and the fold change (protein LMJF.25.2340 SERINE/THREONINE-PROTEIN KINASE, PUTATIVE,PROTEIN KINASE, PUTATIVE) was 0.76. The “fold change relative to vehicle control” value (protein LMJF.26.0630, HY[…], CONSERVED) was 1.23, the “fold change vs vehicle control” value (protein LMJF.26.1240 HEAT SHOCK PROTEIN 70-RELATED PROTEIN) was 1.1 and the fold change (protein LMJF.26.1710 CYTOCHROME C OXIDASE SUBUNIT V, PUTATIVE) was 0.98. For the same compound, the “fold change vs vehicle control” value (protein LMJF.26.2480 CDP-DIACYLGLYCEROL--INOSITOL 3-PHOSPHATIDYLTRANSFERASE, PUTATIVE) was 0.94, the “fold change vs vehicle control” value (protein LMJF.26.2560 HYPOTHETICAL PROTEIN, CONSERVED) was 0.91 and the “fold change vs vehicle control” value (protein LMJF.27.0190 […] 7 SUBUNIT, PUTATIVE) was 1.06. For the same compound, the fold change (protein LMJF.27.0650 HYPOTHETICAL PROTEIN, CONSERVED) was 0.98, the fold change (protein LMJF.27.0700 HYPOTHETICAL PROTEIN, CONSERVED) was 0.69 and the “fold change vs vehicle control” value (protein LMJF.27.0760 GTP-binding protein homologue) was 1.15. The “fold change vs vehicle control” value (protein LMJF.27.1060 CYSTEINE DESULFURASE, PUTATIVE) was 1.03, the “fold change vs vehicle control” value (protein LMJF.27.1110 MITOCHONDRIAL RNA BINDING PROTEIN 1,GBP21, MRP1) was 0.96 and the fold change (protein LMJF.27.1250 HYPOTHETICAL PROTEIN, CONSERVED (Serine-threonine kinase receptor-associated protein, putative)) was 0.88. The “fold change relative to vehicle control” value (protein LMJF.27.1390, 60S ACIDIC RIBOSOMAL SUBUNIT PROTEIN, PUTATIVE) was 1.11, the fold change (protein LMJF.27.1460 PROTEASOME REGULATORY NON-ATP-ASE SUBUNIT 3, PUTATIVE) was 0.97 and the “fold change vs vehicle control” value (protein LMJF.28.0110 […] 3 SUBUNIT, PUTATIVE) was 1.08.

Reference: PMC6199744, “Development of Chemical Proteomics for the Folateome and Analysis of the Kinetoplastid Folateome” (ACS Infectious Diseases, 2018)
